Assays:
[1] = system: two-component signal transduction systems (Taz system); experiment: Taz-1 assay (two-component signal transduction, beta-galactosidase activity); type: cell-based, E. coli RU1012 (pYT0301); conditions: for reduction of beta-galactosidase activity: 3 mM aspartate, 4 hours; for inhibition of two-component signal transduction systems: no concentration stated
Description: The Taz-assay carried out according to the method of Jin and Inouyc (1993) with the following alterations. E. coli RU1012 (pYT0301) were grown overnight in M9 medium at 37° C. supplemented with 100 ug/ml ampicillin and 50 ug/ml kanamycin. This overnight culture was then used to inoculate 50 ml M9 medium in side-arm flasks which were then incubated at 37° C. and shaken at 180 rpm. The OD610 of the growing cultures was monitored regularly and when the OD610=0.2 the cultures were placed on ice […] to give a final concentration of 3 mM (aspartate stock solution made up in M9 salts).
The test compound or mixtures of compounds were dissolved in ethanol and added to cultures to give the required final concentrations. Negative controls were prepared with equal volumes of ethanol. Cultures were then placed in a 37° C. incubator and shaken for 4 hours (OD610 approximately 0.7) before being removed and put on ice. Samples were then removed for beta-galactosidase assays carried out according to the method of Miller (1972). Aspartate (the natural inducer of the Taz system) was used as a positive control at a concentration of 3 mmolar.

[2] = system: V. harveyi reporter strain BB170 Al-2 bioluminescence; experiment: V. harveyi bioassay for the detection of Al-2 activity (bioluminescence); type: cell-based, Vibrio harveyi; conditions: concentration of 50 ug/ml
Description: The V. harveyi bioassay was performed as described previously (Surette and Bassler, 1998). The V. harveyi reporter strain BB170 was grown for 16 hours at 30° C. with shaking in AB medium. Cells were diluted 1:5,000 into 30° C. prewarmed AB medium and 90 ul of the diluted suspension was added to wells containing supernatant. Compounds to be tested were added to the wells to achieve the desired final concentrations and the final volume in each well was adjusted with sterile medium to 100 ul. Ten ul of V. harveyi BB152 (Al-1−, Al-2+) supernatant was used as a positive control and 10 ul of E. coli DH5α supernatant or sterile media was used as a negative control. […] The microtiter plates were incubated at 30° C. with shaking at 175 rpm. Hourly determinations of the total luminescence were quantified using the chemiluminescent setting on a Wallac (Gaithersburg, Md.) model 1450 Microbeta Plus liquid scintillation counter. The V. harveyi cell density was monitored by the use of a microplate reader (Bio-Rad, Hercules, Calif.). Activity is reported as the percentage of activity obtained from V. harveyi BB152 cell-free supernatant. While the absolute values of luminescence varied considerably between experiments, the pattern of results obtained was reproducible.

[3] = system: Pseudomonas aeruginosa (PA01 DO); experiment: Attachment of Pseudomonas aeruginosa (PA01 DO), crystal violet, microtiter plate; type: cell-based; conditions: no concentration stated
Description: The experiments were performed in 96 wells microtiter plates using a volume of 200 μl. The growth medium was M9 and the plates were incubated at 37° C. One % of overnight inoculum was used and the concentrations of the compounds to be tested were 25 and 50 μg/ml. The attachment of the cells were monitored at the endpoint of the experiment which was after 24 hrs. The cells were stained with crystal violet and the absorbance was measured at 595 nm. Reduction in attachment was measured against the control (PAO1 Do ETO ) set at 100%.

Staphylococcus aureus = experiment: Growth of Staphylococcus aureus in sidearm flasks (absorbance 610 nm); type: cell-based
Description: Compounds 122 and 123 were tested against growth of Staphylococcus aureus. The experiments were performed in sidearm flasks and the growth was measured at 610 nm for 12 hours. Hundred μl of an overnight culture was added to 10 ml of growth medium. Nutrient Broth, containing furanones at concentrations 10 and 25 μg/ml. The bacteria were incubated at 37° C.

Pseudomonas aeruginosa [4] = experiment: Growth of Pseudomonas aeruginosa (Example 10); type: cell-based; conditions: 50 μg/ml; 1:9 dilution of TBY medium, 6 hrs
Description: (§1) The experiments were performed in 96 well microtiter plates using a volume of 100 μl. The growth medium was BHI and the plates were incubated at 37° C. One % of overnight inoculum was used and the concentration of the compound to be tested was 50 μg/ml. Both growth and attachment of the cells were monitored at the end point of the experiments which was and after 24 hrs with P. canoris. The cells were stained with crystal violet and the absorbance was measured at 595 nm.
(§2) As Example 9, but the used medium was a 1:9 dilution of TBY medium and the incubation time was 6 hrs.

Porphyromonas canoris [5] = experiment: Growth of Porphyromonas canoris (Example 9); type: cell-based; conditions: 50 μg/ml; BHI, 24 hrs
Description: as §1

Pseudomonas aeruginosa [6] = experiment: Attachment of Pseudomonas aeruginosa (Example 10); type: cell-based; conditions: 50 μg/ml; 1:9 dilution of TBY medium, 6 hrs
Description: as §1, §2

Porphyromonas canoris [7] = experiment: Attachment of Porphyromonas canoris (Example 9); type: cell-based; conditions: 50 μg/ml; BHI, 24 hrs
Description: as §1

[8] = 25 μg/ml, Nutrient Broth, 37° C., 12 hours

## CC(=O)/C(C)=C/Br [Compound 80, 3-(Bromomethylene)-2-Butanone]
[1]; concentration of 50 ug/ml
  reduction of beta-galactosidase activity: 75%
[1]
  inhibition of two-component signal transduction systems: act as inhibitors

## CCCCC(=CBr)C(C)=O [Compound 101, 3-(Bromomethylene)-2-Heptanone]
[2]
  effect on bioluminescence activity: significant increase

## CCC/C(=C\Br)C(C)=O [Compound 122, 3-(Bromomethylene)-2-Hexanone]
[3]
  effect on attachment: reduce the attachment
[2]
  effect on bioluminescence activity: significant increase
Staphylococcus aureus; [8]
  growth inhibition: slight growth inhibition

## CCC(=O)/C(C)=C/Br [Compound 123, 2-(Bromomethylene)-3-Pentanone]
[3]
  effect on attachment: reduce the attachment
[1]; concentration of 25ug/ml
  reduction of beta-galactosidase activity: 40%
[1]
  inhibition of two-component signal transduction systems: act as inhibitors
Pseudomonas aeruginosa [4]
  effect on growth: relatively insignificant effect
Porphyromonas canoris [5]
  effect on growth: relatively insignificant effect
[2]
  effect on bioluminescence activity: significant increase
Pseudomonas aeruginosa [6]
  effect on attachment to a surface: significantly limits
Staphylococcus aureus; 10 μg/ml, Nutrient Broth, 37° C., 12 hours
  growth inhibition: slight growth inhibition
Staphylococcus aureus; [8]
  prolonged lagphase of growth: 4 h
Staphylococcus aureus; concentrations 10 and 25 μg/ml
  growth inhibition compared to 122: more growth inhibitory
Porphyromonas canoris [7]
  effect on attachment to a surface: significantly limits

Reference: patent publication US20090048461A1, “Regulators of Bacterial Signalling Pathways” (Biosignal Limited, priority 2004, published 2009)
